Results on 19 compounds are retold here after ChEMBL document CHEMBL1125342, “Condensation of muscimol or thiomuscimol with aminopyridazines yields GABA-A antagonists” (J Med Chem, 1992).

Test [1] concerns the target GABA-A receptor; anion channel. The class given is organism-based, Bos taurus, Brain.
Test [2] concerns the target GABA-A receptor; anion channel. The class given is functional, tissue-based, Bos taurus, Brain.

Compound `N=c1ccc(-c2ccsc2)nn1Cc1cc(O)no1` yielded a half-maximal inhibitory concentration (IC50) in test [1] of 1.6 µM.
On to `N=c1c2ccccc2c(-c2ccccc2)nn1Cc1cc(O)ns1`, for which the half-maximal inhibitory concentration (IC50) amounted to 0.025 µM in test [2] and 0.16 µM in test [1].
The corresponding values for `N=c1ccc(-c2ccc(Cl)cc2)nn1Cc1cc(O)no1` are 0.08 µM and 1.2 µM.
Take `NCc1cc(O)ns1`: inhibition in test [1] was half-maximal at 0.019 µM (IC50).
On the same count and under the same terms, for `N=c1ccc(-c2ccc(Cl)cc2)nn1CCCC(=O)O` the value was 0.28 µM.
Regarding `C[C@]12CC(=O)C3C(CC[C@@H]4C[C@H](O)CC[C@]34C)C1CC(=N)N2` (stereo partly drawn), the results for the IC50 in test [2] and in test [1] were 0.003 µM and 0.043 µM, respectively.
Compound `N=c1ccc(-c2ccc3c(c2)OCO3)nn1CCCC(=O)O` displayed an IC50 in test [1] of 0.05 µM.
Regarding `N=c1ccc(-c2ccc(Cl)cc2)nn1Cc1cc(O)ns1`, the IC50 in test [2] was 0.029 µM; in test [1] it was 0.15 µM.
On to `N=c1ccc(-c2ccc3c(c2)OCO3)nn1Cc1cc(O)ns1`, for which the IC50 is 0.00076 µM in test [2] and 0.017 µM in test [1].
Compound `O=C1OC=C2CCCNCC12` (stereo not drawn) had an IC50 in test [1] of 56 µM.
For the compound `N=c1ccc(-c2ccc3c(c2)OCO3)nn1Cc1cc(O)no1`, the IC50 in test [2] was 0.006 µM; in test [1] it was 0.075 µM.
For the compound `N=c1ccc(-c2ccsc2)nn1CCCC(=O)O`, the IC50 in test [1] came to 2.37 µM.
`NCc1cc(=O)[nH]o1` [MUSCIMOL]: the 50% inhibitory concentration (IC50) in test [2] came out at 0.135 µM; in test [1] it was 0.002 µM.
With `N=c1c2ccccc2c(-c2ccccc2)nn1Cc1cc(O)no1`, the IC50 came to 0.19 µM in test [2] and 0.12 µM in test [1].
`Cc1cc(-c2ccccc2)nn(Cc2cc(O)no2)c1=N` displayed a half-inhibitory concentration (IC50) in test [1] of 1 µM. That is a single-digit micromolar value.
As to `Cc1cc(-c2ccccc2)c(=N)n(Cc2cc(O)ns2)n1`, the values for the IC50 in test [2] and in test [1] were 1 µM and 6.6 µM, respectively.
In the case of `N=c1ccc(-c2ccccc2)nn1CCCC(=O)O`, the IC50 in test [1] is 1.2 µM.
On the same count and under the same terms, for `Cc1cc(-c2ccccc2)c(=N)n(CCCC(=O)O)n1` the value was 10.6 µM; for `Cc1cc(-c2ccccc2)nn(CCCC(=O)O)c1=N`, 2.3 µM.
